This note sets out measurements from US8703776B2 (Cymabay Therapeutics, Inc., priority 2011, dated 2014).

This experiment deals with T1, human GPR131 (Homo sapiens, UniProt Q8TDU6).
T1 construct: expressed in transfected cells
T1 sequence (Q8TDU6 1-330): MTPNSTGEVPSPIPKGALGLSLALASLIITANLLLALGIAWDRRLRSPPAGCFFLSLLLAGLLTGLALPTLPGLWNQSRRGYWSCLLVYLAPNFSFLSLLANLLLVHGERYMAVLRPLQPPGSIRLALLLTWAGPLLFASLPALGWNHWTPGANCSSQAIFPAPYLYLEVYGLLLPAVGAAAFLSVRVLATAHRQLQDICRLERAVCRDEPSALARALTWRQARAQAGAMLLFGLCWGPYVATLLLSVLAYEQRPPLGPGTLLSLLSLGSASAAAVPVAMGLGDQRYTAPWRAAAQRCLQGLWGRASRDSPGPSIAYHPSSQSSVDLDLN
Briefly: Stimulation of cAMP in stable cell line expressing human GPR131 (FRET cAMP kit). It counts as cell-based. The following applies: 0.5 h; 1.1 μM compound, relative to maximal stimulatory activity of lithocholic acid at 3.3 μM; 30 minutes at 37° C.; read-out: Percent Activity @ 1.1 μM (of 3.3 uM LCA) (%). The method, then:
This assay was developed using a stable cell line expressing human GPR131.
To measure cAMP activity in response to GPR131 agonists, GPR131 cells suspended in DMEM/F12 medium with 1 mM IBMX were seeded in 384 well plates at 5000 cells per well. After incubating with test compounds at 37° C. for 30 minutes cAMP was measured using a fluorescene resonance energy transfer cAMP kit from Cis Bio (Bedford, Mass.) according to the manufacturer's instructions. Briefly, cells were lysed, and cAMP levels determined by competitive immunoassay using D2 labeled cAMP, and europium cryptate tagged anti cAMP antibody. Decreases in the FRET signal (fluorescence ratio (665 nm/620 […]) correspond to increases in intracellular cAMP levels.
Activities of test compounds in Table 1 below are expressed as % activity at 1.1 μM compound compared to the maximal stimulatory activity of lithocholic acid (LCA) (determined at 3.3 μM LCA)

SMILES strings stand for the structures.

Consider `Cc1cc(CN(C)C(=O)c2cnc(S(=O)(=O)CCc3ccc(F)c(Cl)c3)n2-c2ccc(F)cc2)ccn1` [Compound 586, 2-((3-Chloro-4-fluorophenethyl)sulfonyl)-1-(4-fluorophenyl)-N-methyl-N-((2-methylpyridin-4-yl)methyl)-1H-imidazole-5-carboxamide], for which the activation at 1.1 µM amounted to 86%. The value for `CN(Cc1ccnc(C(F)(F)F)c1)C(=O)c1cnc(SCc2c(F)ccc(F)c2F)n1-c1ccc(F)cc1` [Compound 587] was 86%; that for `Cc1cc(CN(C)C(=O)c2cnc(I)n2-c2ccc(F)cc2)ccn1` [Compound 589, 1-(4-Fluorophenyl)-2-iodo-N-methyl-N-((2-methylpyridin-4-yl)methyl)-1H-imidazole-5-carboxamide] was 87%. The value for `Cc1nn(C)cc1CN(C)C(=O)c1cnc(Br)n1-c1ccc(F)cc1` [Compound 590, 2-Bromo-N-((1,3-dimethyl-1H-pyrazol-4-yl)methyl)-1-(4-fluorophenyl)-N-methyl-1H-imidazole-5-carboxamine] was 86%; that for `COc1ccc(Cl)c(CSc2ncc(C(=O)N3CCCC3c3ccncc3)n2-c2ccc(F)cc2)c1F` (stereo not shown) [Compound 591, (2-((6-Chloro-2-fluoro-3-methoxybenzyl)thio)-1-(4-fluorophenyl)-1H-imidazol-5-yl)(2-(pyridin-4-yl)pyrrolidin-1-yl)methanone] was 94%. With `Cc1nn(C)cc1CN(C)C(=O)c1cnc(SCc2ccccc2)n1-c1ccc(F)cc1` [Compound 593, 2-(Benzylthio)-N-((1,3-dimethyl-1H-pyrazol-4-yl)methyl)-1-(4-fluorophenyl)-N-methyl-1H-imidazole-5-carboxamide], the activation at 1.1 µM was 99%.

On to `COc1ccc(Cl)c(CSc2nnc(C(=O)N(C)Cc3ccncc3)n2-c2ccc(F)cc2)c1F` [Compound 594, 5-((6-Chloro-2-fluoro-3-methoxybenzyl)thio)-4-(4-fluorophenyl)-N-methyl-N-(pyridin-4-ylmethyl)-4H-1,2,4-triazole-3-carboxamide], for which the activation at 1.1 µM is 98%. Consider `Cc1ccc(Cl)c(CSc2nnc(C(=O)N(C)Cc3ccncc3)n2-c2ccc(F)cc2)c1F` [Compound 595, 5-((6-Chloro-2-fluoro-3-methylbenzyl)thio)-4-(4-fluorophenyl)-N-methyl-N-(pyridin-4-ylmethyl)-4H-1,2,4-triazole-3-carboxamide], for which the activation at 1.1 µM was 98%. Regarding `COc1ccc(Cl)c(CSc2ncc(C(=O)N(C)Cc3cn(C)nc3C)n2-c2ccc(F)cc2)c1F` [Compound 596, 2-((6-Chloro-2-fluoro-3-methoxybenzyl)thio)-N-((1,3-dimethyl-1H-pyrazol-4-yl)methyl)-1-(4-fluorophenyl)-N-methyl-1H-imidazole-5-carboxamide], the activation at 1.1 µM was 100%. The value for `Cc1ccc(Cl)c(CSc2ncc(C(=O)N(C)Cc3cn(C)nc3C)n2-c2ccc(F)cc2)c1F` [Compound 597, 2-((6-Chloro-2-fluoro-3-methylbenzyl)thio)-N-((1,3-dimethyl-1H-pyrazol-4-yl)methyl)-1-(4-fluorophenyl)-N-methyl-1H-imidazole-5-carboxamide] was 100%. The same measure for `CN(Cc1cccnc1)C(=O)c1cnc(SCc2c(F)ccc(F)c2F)n1-c1ccc(F)cc1` [Compound 603, 1-(4-Fluorophenyl)-N-methyl-N-(pyridin-3-ylmethyl)-2-((2,3,6-trifluorobenzyl)thio)-1H-imidazole-5-carboxamide]: 82%; for `Fc1ccc(-n2c(COCc3ccncc3)nnc2SCc2c(F)ccc(F)c2F)cc1` [Compound 606]: 98%; for `CN(Cc1ccncc1)C(=O)c1cnc(SCc2c(F)cccc2C(F)(F)F)n1-c1ccc(F)cc1` [Compound 607, 2-((2-Fluoro-6-(trifluoromethyl)benzyl)thio)-1-(4-fluorophenyl)-N-methyl-N-(pyridin-4-ylmethyl)-1H-imidazole-5-carboxamide]: 93%. The same measure for `CN(Cc1ccncc1)C(=O)c1cnc(SCc2ccc(Cl)cc2C(F)(F)F)n1-c1ccc(F)cc1` [Compound 609, 2-((4-Chloro-2-(trifluoromethyl)benzyl)thio)-1-(4-fluorophenyl)-N-methyl-N-(pyridin-4-ylmethyl)-1H-imidazole-5-carboxamide]: 86%; for `CN(Cc1ccncc1)C(=O)c1cnc(SCc2cccc(C(F)(F)F)c2F)n1-c1ccc(F)cc1` [Compound 610, 2-((2-Fluoro-3-(trifluoromethyl)benzyl)thio)-1-(4-fluorophenyl)-N-methyl-N-(pyridin-4-ylmethyl)-1H-imidazole-5-carboxamide]: 100%. Consider `CN(Cc1ccncc1)C(=O)c1cnc(SCc2cc(F)ccc2F)n1-c1ccc(F)cc1` [Compound 611, 2-((2,5-Difluorobenzyl)thio)-1-(4-fluorophenyl)-N-methyl-N-(pyridin-4-ylmethyl)-1H-imidazole-5-carboxamide], for which the activation at 1.1 µM was found to be 99%. The value for `COc1ccc(Cl)c(CSc2ncc(C(=O)N(C)Cc3ccncc3)n2-c2ccc(F)cc2)c1F` [Compound 612, 2-((6-Chloro-2-fluoro-3-methoxybenzyl)thio)-1-(4-fluorophenyl)-N-methyl-N-(pyridin-4-ylmethyl)-1H-imidazole-5-carboxamide] was 100%; that for `CN(Cc1ccncc1)C(=O)c1cnc(SCc2ccccc2F)n1-c1ccc(F)cc1` [Compound 613, 2-((2-Fluorobenzyl)thio)-1-(4-fluorophenyl)-N-methyl-N-(pyridin-4-ylmethyl)-1H-imidazole-5-carboxamide] was 100%; that for `CN(Cc1ccncc1)C(=O)c1cnc(SCc2cc(F)ccc2Cl)n1-c1ccc(F)cc1` [Compound 615, 2-((2-Chloro-5-fluorobenzyl)thio)-1-(4-fluorophenyl)-N-methyl-N-(pyridin-4-ylmethyl)-1H-imidazole-5-carboxamide] was 98%. The value for `CN(Cc1ccncc1)C(=O)c1cnc(SCc2cc(Cl)ccc2F)n1-c1ccc(F)cc1` [Compound 616, 2-((5-Chloro-2-fluorobenzyl)thio)-1-(4-fluorophenyl)-N-methyl-N-(pyridin-4-ylmethyl)-1H-imidazole-5-carboxamide] was 100%.

For the molecule `CN(Cc1ccncc1)C(=O)c1cnc(SCc2c(F)ccc(F)c2Cl)n1-c1ccc(F)cc1` [Compound 617, 2-((2-Chloro-3,6-difluorobenzyl)thio)-1-(4-fluorophenyl)-N-methyl-N-(pyridin-4-ylmethyl)-1H-imidazole-5-carboxamide], the activation at 1.1 µM was found to be 99%. As for `CN(Cc1ccncc1)C(=O)c1cnc(SCc2cc(F)c(F)cc2Cl)n1-c1ccc(F)cc1` [Compound 618, 2-((2-Chloro-4,5-difluorobenzyl)thio)-1-(4-fluorophenyl)-N-methyl-N-(pyridin-4-ylmethyl)-1H-imidazole-5-carboxamide], the activation at 1.1 µM was 94%.

Take `CN(Cc1ccncc1)C(=O)c1cnc(SCc2cc(F)cc(F)c2F)n1-c1ccc(F)cc1` [Compound 619, 1-(4-Fluorophenyl)-N-methyl-N-(pyridin-4-ylmethyl)-2-((2,3,5-trifluorobenzyl)thio)-1H-imidazole-5-carboxamide]: the activation at 1.1 µM worked out at 96%. For the molecule `Cc1ccc(F)c(CSc2ncc(C(=O)N(C)Cc3ccncc3)n2-c2ccc(F)cc2)c1Cl` [Compound 620, 2-((2-Chloro-6-fluoro-3-methylbenzyl)thio)-1-(4-fluorophenyl)-N-methyl-N-(pyridin-4-ylmethyl)-1H-imidazole-5-carboxamide], the activation at 1.1 µM was found to be 99%. The value for `CN(Cc1ccncc1)C(=O)c1cnc(SCc2cccc(C(F)(F)F)c2)n1-c1ccc(F)cc1` [Compound 621, 1-(4-Fluorophenyl)-N-methyl-N-(pyridin-4-ylmethyl)-2-((3-(trifluoromethyl)benzyl)thio)-1H-imidazole-5-carboxamide] was 98%.

`Cc1ccc(Cl)c(CSc2ncc(C(=O)N(C)Cc3ccncc3)n2-c2ccc(F)cc2)c1F` [Compound 622, 2-((6-Chloro-2-fluoro-3-methylbenzyl)thio)-1-(4-fluorophenyl)-N-methyl-N-(pyridin-4-ylmethyl)-1H-imidazole-5-carboxamide]: the activation at 1.1 µM was determined as 100%.

Consider `CCN(Cc1ccncc1)C(=O)c1cnc(SCc2c(Cl)ccc(OC)c2F)n1-c1ccc(F)cc1` [Compound 626, 2-((6-Chloro-2-fluoro-3-methoxybenzyl)thio)-N-ethyl-1-(4-fluorophenyl)-N-(pyridin-4-ylmethyl)-1H-imidazole-5-carboxamide], for which the activation at 1.1 µM was found to be 100%. The same measure for `CCN(Cc1ccncc1)C(=O)c1cnc(SCc2c(Cl)ccc(C)c2F)n1-c1ccc(F)cc1` [Compound 627, 2-((6-Chloro-2-fluoro-3-methylbenzyl)thio)-N-ethyl-1-(4-fluorophenyl)-N-(pyridin-4-ylmethyl)-1H-imidazole-5-carboxamide]: 100%.
